Consider twelve compounds from patent US20260070945A1, “MACROCYCLIC IMMUNOMODULATORS” (Bristol-Myers Squibb Company, priority 2022, published 2026).

*1 amine or outer side, *2 acyl side, *3 side chain or, on linkers, in order; H or OH if unused. Where a SMILES comes first, the peptide text is derived from it. Bridges are numbered along the chain shown (N, C = ends). [ ]: non-standard residue; d: D form. The star is where a group is joined. ξ: configuration not given here. Phe(4-CONH2) = NC(=O)c1ccc(C[C@H](N)C(=O)O)cc1; Phe(4-COOH) = N[C@@H](Cc1ccc(C(=O)O)cc1)C(=O)O; Bip = N[C@@H](Cc1ccc(-c2ccccc2)cc1)C(=O)O; Phe(3-Me) = Cc1cccc(C[C@H](N)C(=O)O)c1; γGlu = O=C(O)[C@H](CCC(=O)[*:2])N[*:1]; Cha = N[C@@H](CC1CCCCC1)C(=O)O; Ile(3ξ) = CCC(C)[C@H](N)C(=O)O; Thr(3ξ) = CC(O)[C@H](N)C(=O)O; 12Ado = NCCCCCCCCCCCC(=O)O; hSer = N[C@@H](CCO)C(=O)O; Carboxymethyl = O=C(O)C*; NMeA = CN[C@@H](C)C(=O)O; Orn = NCCC[C@H](N)C(=O)O; Aun = NCCCCCCCCCCC(=O)O; Dab = NCC[C@H](N)C(=O)O; Dap = NC[C@H](N)C(=O)O; AEEA = NCCOCCOCC(=O)O

For the first test, the target named is T1, PD-1/PD-L1 interaction (PE-labeled human PD-L1-Ig binding to Jurkat cell line over-expressing human PD-1) (Homo sapiens, UniProt Q15116).
T1 construct: expressed in transfected cells; host or cells: Jurkat
T1 sequence (Q15116 25-288): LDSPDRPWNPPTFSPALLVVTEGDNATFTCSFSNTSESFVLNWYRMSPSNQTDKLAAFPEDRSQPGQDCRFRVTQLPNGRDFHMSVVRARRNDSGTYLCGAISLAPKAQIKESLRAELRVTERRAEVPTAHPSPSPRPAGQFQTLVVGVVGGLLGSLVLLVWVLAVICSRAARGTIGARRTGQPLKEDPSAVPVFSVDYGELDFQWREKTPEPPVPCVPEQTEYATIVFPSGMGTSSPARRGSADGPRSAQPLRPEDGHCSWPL
Briefly: Jurkat-PD-1 Cell Binding High-Content Screening Assay (CBA). The settings on record: Jurkat-hPD-1 cells, PE-labeled PD-L1-Ig 20 nM final; read-out: Jurkat HPD1 PDL1 IC50. The method, boiled down: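 Cells 8×10^3/well, DMEM + 10% FCS; cpd 2 h, 37 °C; PE–PD-L1-Ig 20 nM final, 1 h; PFA fix + Hoechst 33342, 3× dPBS wash; high-content imager.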
Turning to `CCC(C)[C@@H]1NC(=O)[C@H](Cc2ccc(-c3ccccc3)cc2)NC(=O)[C@H](C(C)C)NC(=O)[C@H](Cc2c[nH]c3ccccc23)NC(=O)[C@H](CC(=O)O)NC(=O)[C@H](Cc2ccc(OCC(=O)O)cc2)NC(=O)[C@H](C(C)O)NC(=O)CSC[C@@H](C(=O)N[C@@H](CCCN)C(=O)N[C@@H](CCC(=O)NCCCCCCCCCCCC(=O)O)C(=O)O)NC(=O)[C@H](C(C)O)NC(=O)[C@H](C(C)C)NC(=O)[C@H](CC2CCCCC2)NC(=O)[C@H](CCN)NC(=O)[C@@H](CC(C)C)NC(=O)[C@H](C)N(C)C1=O` (stereo partly drawn) [Example 2417] ({CH2CO}-[Thr(3ξ)]Y(Carboxymethyl)DWV[Bip][Ile(3ξ)][NMeA][dL][Dab][Cha]V[Thr(3ξ)]C[Orn][γGlu][12Ado]-OH; thioether N-14), the IC50 (as a rule, the point on the concentration scale where inhibition reaches its midpoint) came out at 32.3 nM.
With `CCC(C)[C@@H]1NC(=O)[C@H](Cc2ccc(-c3ccccc3)cc2)NC(=O)[C@H](C(C)C)NC(=O)[C@H](Cc2c[nH]c3ccccc23)NC(=O)[C@H](CC(=O)O)NC(=O)[C@H](Cc2ccc(OCC(=O)O)cc2)NC(=O)[C@H](C(C)O)NC(=O)CSC[C@@H](C(=O)N[C@@H](CCCN)C(=O)N[C@@H](CCC(=O)NCCCCCCCCCCCC(=O)O)C(=O)O)NC(=O)[C@H](C(C)O)NC(=O)[C@H](C(C)C)NC(=O)[C@H](CC2CCCCC2)NC(=O)[C@H](CCN)NC(=O)[C@@H](CC(C)C)NC(=O)[C@H](C)N(C)C1=O` (stereo partly drawn) [Example 2418] ({CH2CO}-[Thr(3ξ)]Y(Carboxymethyl)DWV[Bip][Ile(3ξ)][NMeA][dL][Dab][Cha]V[Thr(3ξ)]C[Orn][γGlu][12Ado]-OH; thioether N-14), the IC50 is 46.8 nM.
The same measure, in the same setting: the value for `CC(=O)NCCCC[C@@H]1NC(=O)[C@H](Cc2ccc(-c3ccccc3)cc2)NC(=O)[C@H](Cc2ccc(O)cc2)NC(=O)[C@H](Cc2cccc(C)c2)NC(=O)[C@H](CC(=O)O)NC(=O)[C@H](Cc2ccc(OCC(=O)O)cc2)NC(=O)[C@H](CCN)NC(=O)CSC[C@@H](C(=O)NCCOCCOCC(=O)NCCCCCCCCCCC(=O)O)NC(=O)[C@H](C(C)O)NC(=O)[C@H](C(C)C)NC(=O)[C@H](CC2CCCCC2)NC(=O)[C@H](CCN)NC(=O)[C@@H](CC(C)C)NC(=O)[C@H](C)N(C)C1=O` (stereo partly drawn) [Example 2419] ({CH2CO}-[Dab]Y(Carboxymethyl)D[Phe(3-Me)]Y[Bip]K(Ac)[NMeA][dL][Dab][Cha]V[Thr(3ξ)]C[AEEA][Aun]-OH; thioether N-14) was 52.4 nM; that for `CC(=O)NCCCC[C@@H]1NC(=O)[C@H](Cc2ccc(-c3ccccc3)cc2)NC(=O)[C@H](Cc2ccc(O)cc2)NC(=O)[C@H](Cc2cccc(C)c2)NC(=O)[C@H](CC(=O)O)NC(=O)[C@H](Cc2ccc(OCC(=O)O)cc2)NC(=O)[C@H](C(C)O)NC(=O)CSC[C@@H](C(=O)NCCOCCOCC(=O)NCCCCCCCCCCC(=O)O)NC(=O)[C@H](C(C)O)NC(=O)[C@H](C(C)C)NC(=O)[C@H](CC2CCCCC2)NC(=O)[C@H](CCN)NC(=O)[C@@H](CC(C)C)NC(=O)[C@H](C)N(C)C1=O` (stereo partly drawn) [Example 2420] ({CH2CO}-[Thr(3ξ)]Y(Carboxymethyl)D[Phe(3-Me)]Y[Bip]K(Ac)[NMeA][dL][Dab][Cha]V[Thr(3ξ)]C[AEEA][Aun]-OH; thioether N-14) was 35.4 nM.
Regarding `CC(=O)NCCCC[C@@H]1NC(=O)[C@H](Cc2ccc(-c3ccccc3)cc2)NC(=O)[C@H](Cc2ccc(O)cc2)NC(=O)[C@H](Cc2cccc(C)c2)NC(=O)[C@H](CC(=O)O)NC(=O)[C@H](Cc2ccc(OCC(=O)O)cc2)NC(=O)[C@H](CCN)NC(=O)CSC[C@@H](C(=O)N[C@@H](CCN)C(=O)NCCCCCCCCCCC(=O)O)NC(=O)[C@H](C(C)O)NC(=O)[C@H](C(C)C)NC(=O)[C@H](CC2CCCCC2)NC(=O)[C@H](CCN)NC(=O)[C@@H](CC(C)C)NC(=O)[C@H](C)N(C)C1=O` (stereo partly drawn) [Example 2421] ({CH2CO}-[Dab]Y(Carboxymethyl)D[Phe(3-Me)]Y[Bip]K(Ac)[NMeA][dL][Dab][Cha]V[Thr(3ξ)]C[Dab][Aun]-OH; thioether N-14), the IC50 was 14.6 nM.
Take `CC(=O)NCCCC[C@@H]1NC(=O)[C@H](Cc2ccc(-c3ccccc3)cc2)NC(=O)[C@H](Cc2ccc(O)cc2)NC(=O)[C@H](Cc2cccc(C)c2)NC(=O)[C@H](CC(=O)O)NC(=O)[C@H](Cc2ccc(OCC(=O)O)cc2)NC(=O)[C@H](Cc2ccc(OCC(=O)O)cc2)NC(=O)CSC[C@@H](C(=O)NCCOCCOCC(=O)NCCCCCCCCCCC(=O)O)NC(=O)[C@H](CCO)NC(=O)[C@H](C(C)C)NC(=O)[C@H](CC2CCCCC2)NC(=O)[C@H](CCN)NC(=O)[C@@H](CC(C)C)NC(=O)[C@H](C)N(C)C1=O` [Example 2422] ({CH2CO}-Y(Carboxymethyl)Y(Carboxymethyl)D[Phe(3-Me)]Y[Bip]K(Ac)[NMeA][dL][Dab][Cha]V[hSer]C[AEEA][Aun]-OH; thioether N-14): the IC50 is 24.9 nM.
For `Cc1cccc(C[C@@H]2NC(=O)[C@H](CC(=O)O)NC(=O)[C@H](Cc3ccc(OCC(=O)O)cc3)NC(=O)[C@H](Cc3ccc(C(N)=O)cc3)NC(=O)CSC[C@@H](C(=O)N[C@H](CC(N)=O)C(=O)NCCOCCOCC(=O)NCCCCCCCCCCC(=O)O)NC(=O)[C@H](CO)NC(=O)[C@H](C(C)C)NC(=O)[C@H](CC3CCCCC3)NC(=O)[C@H](CCN)NC(=O)[C@@H](CC(C)C)NC(=O)[C@H](C)N(C)C(=O)[C@H](Cc3ccc(O)cc3)NC(=O)[C@H](Cc3ccc(-c4ccccc4)cc3)NC(=O)[C@H](Cc3ccc(OCC(=O)O)cc3)NC2=O)c1` [Example 2423] ({CH2CO}-[Phe(4-CONH2)]Y(Carboxymethyl)D[Phe(3-Me)]Y(Carboxymethyl)[Bip]Y[NMeA][dL][Dab][Cha]VSC[dN][AEEA][Aun]-OH; thioether N-14), the IC50 stood at 14.2 nM.
For `Cc1cccc(C[C@@H]2NC(=O)[C@H](CC(=O)O)NC(=O)[C@H](Cc3ccc(C(=O)O)cc3)NC(=O)[C@H](C(C)O)NC(=O)CSC[C@@H](C(=O)N[C@@H](CCCN)C(=O)N[C@@H](CO)C(=O)NCCCCCCCCCCCC(=O)O)NC(=O)[C@H](CO)NC(=O)[C@H](CCCCN)NC(=O)[C@H](CC3CCCCC3)NC(=O)[C@H](CCN)NC(=O)[C@@H](CC(C)C)NC(=O)[C@H](C)N(C)C(=O)[C@H](Cc3ccc(OCC(=O)O)cc3)NC(=O)[C@H](Cc3ccc(-c4ccccc4)cc3)NC(=O)[C@H](Cc3ccc(OCC(=O)O)cc3)NC2=O)c1` (stereo partly drawn) [Example 2424] ({CH2CO}-[Thr(3ξ)][Phe(4-COOH)]D[Phe(3-Me)]Y(Carboxymethyl)[Bip]Y(Carboxymethyl)[NMeA][dL][Dab][Cha]KSC[Orn]S[12Ado]-OH; thioether N-14), the IC50 turned out to be 108 nM.
As for `Cc1cccc(C[C@@H]2NC(=O)[C@H](CC(=O)O)NC(=O)[C@H](Cc3ccc(OCC(=O)O)cc3)NC(=O)[C@H](CCN)NC(=O)CSC[C@@H](C(=O)N[C@@H](CCN)C(=O)NCCCCCCCCCCC(=O)O)NC(=O)[C@H](CO)NC(=O)[C@H](C(C)O)NC(=O)[C@H](CC3CCCCC3)NC(=O)[C@H](CCN)NC(=O)[C@@H](CC(C)C)NC(=O)[C@H](C)N(C)C(=O)[C@H](Cc3ccc(OCC(=O)O)cc3)NC(=O)[C@H](Cc3ccc(-c4ccccc4)cc3)NC(=O)[C@H](Cc3ccc(OCC(=O)O)cc3)NC2=O)c1` (stereo partly drawn) [Example 2425] ({CH2CO}-[Dab]Y(Carboxymethyl)D[Phe(3-Me)]Y(Carboxymethyl)[Bip]Y(Carboxymethyl)[NMeA][dL][Dab][Cha][Thr(3ξ)]SC[Dab][Aun]-OH; thioether N-14), the IC50 was found to be 15.6 nM.

Still in this test, the particulars now being: PE-labeled PD-L1-Ig 20 nM final, Jurkat-hPD-1 cells; read-out: Jurkat HPD1 PDL1 IC50.
Turning to `Cc1cccc(C[C@@H]2NC(=O)[C@H](CC(=O)O)NC(=O)[C@H](Cc3ccc(OCC(=O)O)cc3)NC(=O)[C@H](C(C)O)NC(=O)CSC[C@@H](C(=O)N[C@@H](CCN)C(=O)NCCCCCCCCCCC(=O)O)NC(=O)[C@H](CO)NC(=O)[C@H](Cc3cnc[nH]3)NC(=O)[C@H](CC3CCCCC3)NC(=O)[C@H](CCN)NC(=O)[C@@H](CC(C)C)NC(=O)[C@H](C)N(C)C(=O)[C@H](Cc3ccc(OCC(=O)O)cc3)NC(=O)[C@H](Cc3ccc(-c4ccccc4)cc3)NC(=O)[C@H](Cc3ccc(OCC(=O)O)cc3)NC2=O)c1` (stereo partly drawn) [Example 2426] ({CH2CO}-[Thr(3ξ)]Y(Carboxymethyl)D[Phe(3-Me)]Y(Carboxymethyl)[Bip]Y(Carboxymethyl)[NMeA][dL][Dab][Cha]HSC[Dab][Aun]-OH; thioether N-14), the 50% inhibitory concentration (IC50) stood at 36 nM.
As for `Cc1cccc(C[C@@H]2NC(=O)[C@H](CC(=O)O)NC(=O)[C@H](Cc3ccc(OCC(=O)O)cc3)NC(=O)[C@H](CN)NC(=O)CSC[C@@H](C(=O)N[C@@H](CCN)C(=O)NCCCCCCCCCCC(=O)O)NC(=O)[C@H](CO)NC(=O)[C@H](Cc3cnc[nH]3)NC(=O)[C@H](CC3CCCCC3)NC(=O)[C@H](CCN)NC(=O)[C@@H](CC(C)C)NC(=O)[C@H](C)N(C)C(=O)[C@H](Cc3ccc(OCC(=O)O)cc3)NC(=O)[C@H](Cc3ccc(-c4ccccc4)cc3)NC(=O)[C@H](Cc3ccc(OCC(=O)O)cc3)NC2=O)c1` [Example 2427] ({CH2CO}-[Dap]Y(Carboxymethyl)D[Phe(3-Me)]Y(Carboxymethyl)[Bip]Y(Carboxymethyl)[NMeA][dL][Dab][Cha]HSC[Dab][Aun]-OH; thioether N-14), the IC50 is 30.7 nM.
On to `CC(C)C[C@H]1NC(=O)[C@H](C)N(C)C(=O)[C@H](Cc2ccc(OCC(=O)O)cc2)NC(=O)[C@H](Cc2ccc(-c3ccccc3)cc2)NC(=O)[C@H](Cc2ccc(OCC(=O)O)cc2)NC(=O)[C@H](Cc2c[nH]c3ccccc23)NC(=O)[C@H](CC(=O)O)NC(=O)[C@H](Cc2ccc(OCC(=O)O)cc2)NC(=O)[C@H](C(C)O)NC(=O)CSC[C@@H](C(=O)N[C@@H](CCN)C(=O)NCCCCCCCCCCC(=O)O)NC(=O)[C@H](CO)NC(=O)[C@H](Cc2cnc[nH]2)NC(=O)[C@H](CC2CCCCC2)NC(=O)[C@H](CCN)NC1=O` (stereo partly drawn) [Example 2428] ({CH2CO}-[Thr(3ξ)]Y(Carboxymethyl)DWY(Carboxymethyl)[Bip]Y(Carboxymethyl)[NMeA][dL][Dab][Cha]HSC[Dab][Aun]-OH; thioether N-14), for which the IC50 came out at 259 nM.
